This is an account of results in patent US11174264B2, “TYK2 inhibitors and uses thereof” (Nimbus Lakshmi, Inc., priority 2019, dated 2021).

As a reminder, the Kd is the constant that tells how readily two partners part at equilibrium. Broadly, the IC50 is the concentration at which inhibition is half-maximal.

The target of assay [1] is human TYK2 (JH2domain-pseudokinase) (Homo sapiens (Human), UniProt P29597). Description: TYK2 JH2 Domain Binding Assay (KINOMEscan). The settings on record: read-out: hTYK2_JH2_Binding (Kd). As for the experimental part:
Binding constants for compounds of the present invention against the JH2 domain were determined by the following protocol for a KINOMEscan® assay (DiscoveRx). A fusion protein of a partial length construct of human TYK2 (JH2domain-pseudokinase) (amino acids G556 to D888 based on reference sequence NP_003322.3) and the DNA binding domain of NFkB was expressed in transiently transfected HEK293 cells. From these HEK 293 cells, extracts were prepared in M-PER extraction buffer (Pierce) in the presence of Protease Inhibitor Cocktail Complete (Roche) and Phosphatase Inhibitor Cocktail Set II (Merck) per manufacturers' instructions. The TYK2 (JH2domain-pseudokinase) fusion protein was labeled with a chimeric double-stranded DNA tag containing the NFkB binding site (5′-[…]-3′) fused to an amplicon for qPCR readout, which was added directly to the expression extract (the final concentration of DNA-tag in the binding reaction is 0.1 nM).
The liganded beads were blocked with excess biotin and washed with blocking buffer (SeaBlock (Pierce), 1% BSA, 0.05% Tween 20, 1 mM DTT) to remove unbound ligand and to reduce nonspecific binding.
Extracts were used directly in binding assays without any enzyme purification steps at a ≥10,000-fold overall stock dilution (final DNA-tagged enzyme concentration <0.1 nM). Extracts were loaded with DNA-tag and diluted into the binding reaction in a two step process. First extracts were diluted 1:100 in 1× binding buffer (PBS/0.05% Tween 20/10 mM DTT/0.1% BSA/2 μg/ml sonicated salmon sperm DNA) containing 10 nM DNA-tag. This dilution was allowed to equilibrate at room temperature for 15 minutes and then subsequently diluted 1:100 in 1× binding buffer. […] Kds were determined using an 11-point 3-fold compound dilution series with three DMSO control points. […] The compounds were then diluted directly into the assays such that the final concentration of DMSO was 0.9%. All reactions performed in polypropylene 384-well plates. Each was a final volume of 0.02 mL. Assays were incubated with shaking for 1 hour at room temperature. Then the beads were pelleted and washed with wash buffer (1×PBS, 0.05% Tween 20) to remove displaced kinase and test compound. […] The qPCR protocol consisted of a 10 minute hot start at 95° C., followed by 35 cycles of 95° C. for 15 seconds, 60° C. for 1 minute.
The compounds were then diluted directly into the assays such that the final concentration of DMSO was 0.9%. […] Kd measurements were performed in duplicate.
Binding constants (Kd values) were calculated with a standard dose-response curve using the Hill equation: […]
The Hill Slope was set to −1.

In assay [2] the target is JAK1 kinase domain (Homo sapiens (Human), UniProt P23458). Description: JAK1 Radioactive Kinase Assay. Particulars: 10 μM compound; for inhibition at 10 µM: read-out: JAK1_IC50_RB (% INH_@_10 uM) at 10.0 uM [% INH]. The format is biochemical. The text has this:
(§1) Similar assays were run to measure the percent inhibition at the JAK1 and JAK3 kinase domains.

Assay [3] addresses JAK3 kinase domain (Homo sapiens (Human), UniProt P52333). Description: JAK3 Radioactive Kinase Assay. The format is biochemical. The settings on record: 10 μM compound; for inhibition at 10 µM: read-out: JAK3_IC50_RB (% INH_@_10 uM) at 10.0 uM [% INH].
Excerpt: as §1

Assay [4] deals with JAK2 kinase domain (JH1) (Homo sapiens (Human), UniProt O60674). Description: JAK2 Radioactive Kinase Assay. Particulars: 10 μM compound, ATP at 10 μM; for inhibition at 10 µM: read-out: JAK2_IC50_RB (% INH_@_10 uM) at 10.0 uM [% INH]. The format is biochemical. As for the experimental part:
(§2) The Tyk2 and JAK2 radioactive kinase assay measures the percent inhibition at the Tyk2 kinase domain (JH1) and the percent inhibition at the JAK2 kinase domain (JH1). Results of the assay are expressed as percent inhibition at 10 μM.

In assay [5] the test system is IL-12 induced STAT4 phophorylation mediated by Tyk2/JAK2 (heterodimeric complex). Description: IL-12 Induced pSTAT4 in Human PBMC. The settings on record: for IC50: 1.7 ng/mL IL-12, read-out: PBMC_IL-12-pSTAT4 (IC50); for inhibition at 0.05 µM: Homo sapiens, PBMC, 1.7 ng/mL IL-12, read-out: PBMC_IL-12-pSTAT4 (% Inhibition_Average_@0.05 uM) [%]. The format is cell-based. As for the experimental part:
Human PBMC are isolated from buffy coat and are stored frozen for assays as needed. […] 15 μl of compound or DMSO is added to the well at the desired concentrations and incubated at 1 hr at 37° C. 15 μl of stimulus (final concentration of 1.7 ng/mL IL-12) is added for 30 minutes prior to pSTAT4 and total STAT4 analysis using cell lysates prepared and analyzed by MSD reagents as per manufacturer protocol. The final DMSO concentration of compound in the assay is 0.1%.
The IL-12 Induced pSTAT4 assay evaluates the inhibition of IL-12 induced STAT4 phophorylation mediated by Tyk2/JAK2 (heterodimeric complex).

Assay [6] deals with Tyk2 kinase domain (JH1) (Homo sapiens (Human), UniProt P29597). Description: Tyk2 Radioactive Kinase Assay. The format is biochemical. The settings on record: 10 μM compound, ATP at 10 μM; read-out: TYK2_IC50_RB (% INH_@_10 uM) at 10.0 uM [% INH]. As for the experimental part: as §2
Sequence of Tyk2 kinase domain (JH1) (P29597 897-1176): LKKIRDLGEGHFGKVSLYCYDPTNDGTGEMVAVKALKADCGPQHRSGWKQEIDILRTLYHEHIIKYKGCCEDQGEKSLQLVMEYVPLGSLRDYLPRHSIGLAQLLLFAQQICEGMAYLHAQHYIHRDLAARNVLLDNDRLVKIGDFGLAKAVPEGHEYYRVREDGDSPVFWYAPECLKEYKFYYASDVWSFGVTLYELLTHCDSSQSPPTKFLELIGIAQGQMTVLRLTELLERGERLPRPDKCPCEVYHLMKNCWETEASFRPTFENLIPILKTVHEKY

Sequence of JAK1 kinase domain (P23458 875-1153): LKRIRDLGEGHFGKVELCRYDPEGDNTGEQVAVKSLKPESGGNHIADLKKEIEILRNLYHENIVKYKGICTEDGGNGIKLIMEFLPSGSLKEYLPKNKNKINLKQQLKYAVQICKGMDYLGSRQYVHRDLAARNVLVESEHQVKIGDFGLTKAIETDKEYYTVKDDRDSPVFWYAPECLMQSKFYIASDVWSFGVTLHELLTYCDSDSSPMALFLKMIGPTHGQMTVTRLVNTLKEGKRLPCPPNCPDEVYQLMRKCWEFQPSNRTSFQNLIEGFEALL
Sequence of JAK3 kinase domain (P52333 822-1111): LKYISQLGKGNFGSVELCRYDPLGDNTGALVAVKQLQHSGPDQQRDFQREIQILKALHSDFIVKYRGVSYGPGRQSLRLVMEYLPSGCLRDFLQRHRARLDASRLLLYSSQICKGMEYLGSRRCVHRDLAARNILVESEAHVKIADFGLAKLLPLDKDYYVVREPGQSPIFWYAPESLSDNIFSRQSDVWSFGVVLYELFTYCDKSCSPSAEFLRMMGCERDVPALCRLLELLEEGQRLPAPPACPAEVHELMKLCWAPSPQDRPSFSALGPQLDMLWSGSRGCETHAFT
Sequence of human TYK2 (JH2domain-pseudokinase) (P29597 556-888): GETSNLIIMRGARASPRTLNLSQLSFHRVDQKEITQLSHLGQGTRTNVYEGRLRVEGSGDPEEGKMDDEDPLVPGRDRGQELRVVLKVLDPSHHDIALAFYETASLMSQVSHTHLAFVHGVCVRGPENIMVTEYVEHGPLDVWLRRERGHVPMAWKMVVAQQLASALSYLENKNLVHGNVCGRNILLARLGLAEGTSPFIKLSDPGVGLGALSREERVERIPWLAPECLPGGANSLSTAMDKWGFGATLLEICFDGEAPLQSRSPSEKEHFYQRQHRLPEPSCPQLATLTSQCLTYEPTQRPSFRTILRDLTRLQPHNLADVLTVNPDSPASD
Sequence of JAK2 kinase domain (JH1) (O60674 849-1124): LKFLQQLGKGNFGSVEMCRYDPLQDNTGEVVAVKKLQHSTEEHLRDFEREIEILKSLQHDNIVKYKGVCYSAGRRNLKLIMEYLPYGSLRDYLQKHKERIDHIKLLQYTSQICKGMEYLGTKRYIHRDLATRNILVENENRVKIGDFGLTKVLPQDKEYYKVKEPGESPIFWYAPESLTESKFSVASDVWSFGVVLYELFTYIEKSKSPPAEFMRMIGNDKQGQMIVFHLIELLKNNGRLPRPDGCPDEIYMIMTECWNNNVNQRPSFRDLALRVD

Turning to `CNc1cc(-c2cn(C(C)C)c3ncccc23)nn2c(C(=O)N[C@H]3CC[C@H]3O)cnc12` (racemic) [Compound I-15, N-(2-hydroxycyclobutyl)-6-(1-isopropyl-1H-pyrrolo[2,3-b]pyridin-3-yl)-8-(methylamino)imidazo[1,2-b]pyridazine-3-carboxamide], the Kd in assay [1] was less than 0.2 nM. For the same compound, the “JAK1_IC50_RB (% INH_@_10 uM) at 10.0 uM [% INH]” value in assay [2] is “A (had a percent inhibition at 10 μM lower than 50)”. In addition, in assay [3], the “JAK3_IC50_RB (% INH_@_10 uM) at 10.0 uM [% INH]” value was “A (had a percent inhibition at 10 μM lower than 50)”. In addition, in assay [4], the “JAK2_IC50_RB (% INH_@_10 uM) at 10.0 uM [% INH]” value is “A (had a percent inhibition at 10 μM lower than 50)”. Besides, in assay [5], the IC50 is less than 100 nM. For the same compound, in assay [5] (0.05 μM compound, 1.7 ng/mL IL-12), the “PBMC_IL-12-pSTAT4 (% Inhibition_Average_@0.05 uM) [%]” value was “** (had a percent inhibition at 0.05 μM between 50 and 70)”.
Take `CNc1cc(Nc2cccn(C3CCOCC3)c2=O)nn2c(C(=O)N[C@H]3CC[C@@H]3OC)cnc12` (stereo in doubt) [Compound I-20, N-(2-methoxycyclobutyl)-8-(methylamino)-6-((2-oxo-1-(tetrahydro-2H-pyran-4-yl)-1,2-dihydropyridin-3-yl)amino)imidazo[1,2-b]pyridazine-3-carboxamide]: the Kd in assay [1] is less than 0.2 nM. The IC50 in assay [5] is less than 100 nM. In assay [5] (0.05 μM compound), the inhibition at 0.05 µM lay in the range of 70 to 90%.
Regarding `CNc1cc(Nc2cccn(-c3ccccn3)c2=O)nn2c(C(=O)NC3CC3)cnc12` [Compound I-4, N-cyclopropyl-8-(methylamino)-6-((2-oxo-2H-[1,2′-bipyridin]-3-yl)amino)imidazo[1,2-b]pyridazine-3-carboxamide], the Kd in assay [1] is less than 0.2 nM. The inhibition at 10 µM in assay [2], in assay [3], in assay [6] and in assay [4] was less than 50% in each case. Also, the inhibition at 0.05 µM in assay [5] (0.05 μM compound) is less than 50%.
Take `CNc1cc(-c2cn(C(C)C)c3ncccc23)nn2c(C(=O)N[C@@H]3C[C@@H]3F)cnc12` [Compound I-5, N-((1R,2S)-2-fluorocyclopropyl)-6-(1-isopropyl-1H-pyrrolo[2,3-b]pyridin-3-yl)-8-(methylamino)imidazo[1,2-b]pyridazine-3-carboxamide]: the Kd in assay [1] is less than 0.2 nM. Further, the inhibition at 10 µM in assay [2], in assay [3], in assay [6] and in assay [4] was less than 50% throughout. The IC50 in assay [5] was less than 100 nM. Also, the inhibition at 0.05 µM in assay [5] (0.05 μM compound) lay within 70 to 90%.
Turning to `CNc1cc(-c2cn(CCN3CCOCC3)c3ncccc23)nn2c(C(=O)N[C@@H]3C[C@@H]3F)cnc12` [Compound I-6, N-((1R,2S)-2-fluorocyclopropyl)-8-(methylamino)-6-(1-(2-morpholinoethyl)-1H-pyrrolo[2,3-b]pyridin-3-yl)imidazo[1,2-b]pyridazine-3-carboxamide], the Kd in assay [1] was less than 0.2 nM. Moreover, the inhibition at 10 µM in assay [2], in assay [3], in assay [6] and in assay [4] was less than 50% in each case. In addition, the IC50 in assay [5] was less than 100 nM. Moreover, in assay [5] (0.05 μM compound), the inhibition at 0.05 µM was less than 50%.
Take `CNc1cc(-c2cn(C(C)C)c3ncccc23)nn2c(C(=O)N[C@@H]3CC[C@@H]3O)cnc12` [Compound I-7, N-((1R,2S)-2-hydroxycyclobutyl)-6-(1-isopropyl-1H-pyrrolo[2,3-b]pyridin-3-yl)-8-(methylamino)imidazo[1,2-b]pyridazine-3-carboxamide]: the Kd in assay [1] is less than 0.2 nM. The inhibition at 10 µM in assay [2], in assay [3], in assay [6] and in assay [4] was less than 50% in each case.
Take `CNc1cc(-c2cn(CCN3CCOCC3)c3ncccc23)nn2c(C(=O)N[C@@H]3CC[C@@H]3O)cnc12` [Compound I-9, N-((1R,2S)-2-hydroxycyclobutyl)-8-(methylamino)-6-(1-(2-morpholinoethyl)-1H-pyrrol[2,3-b]pyridin-3-yl)imidazo[1,2-b]pyridazine-3-carboxamide]: in assay [1], the Kd was 0.2 to 1 nM. Further, the inhibition at 10 µM in assay [2], in assay [3] and in assay [4] was less than 50% in each case.
As for `CNc1cc(-c2cn(C(C)C)c3ncccc23)nn2c(C(=O)N[C@H]3CC[C@H]3O)cnc12` [Compound I-10, N-((1S,2R)-2-hydroxycyclobutyl)-6-(1-isopropyl-1H-pyrrolo[2,3-b]pyridin-3-yl)-8-(methylamino)imidazo[1,2-b]pyridazine-3-carboxamide], the Kd in assay [1] was less than 0.2 nM. Moreover, the inhibition at 10 µM in assay [2], in assay [3], in assay [6] and in assay [4] was less than 50% each time. In addition, the IC50 in assay [5] is less than 100 nM. For the same compound, the inhibition at 0.05 µM in assay [5] (0.05 μM compound) was 70 to 90%.
For the compound `CNc1cc(-c2cn(C3CCOCC3)c3ncccc23)nn2c(C(=O)N[C@H]3CC[C@H]3O)cnc12` [Compound I-11, N-((1S,2R)-2-hydroxycyclobutyl)-8-(methylamino)-6-(1-(tetrahydro-2H-pyran-4-yl)-1H-pyrrolo[2,3-b]pyridin-3-yl)imidazo[1,2-b]pyridazine-3-carboxamide], in assay [1], the Kd was less than 0.2 nM. The inhibition at 0.05 µM in assay [5] (0.05 μM compound) was in the range of 70 to 90%.
In the case of `CNc1cc(-c2cn(CCN3CCOCC3)c3ncccc23)nn2c(C(=O)N[C@H]3CC[C@H]3O)cnc12` [Compound I-12, N-((1S,2R)-2-hydroxycyclobutyl)-8-(methylamino)-6-(1-(2-morpholinoethyl)-1H-pyrrolo[2,3-b]pyridin-3-yl)imidazo[1,2-b]pyridazine-3-carboxamide], in assay [1], the dissociation constant (Kd) is less than 0.2 nM. Also, the inhibition at 10 µM in assay [2], in assay [3], in assay [6] and in assay [4] was less than 50% each time. For the same compound, the inhibition at 0.05 µM in assay [5] (0.05 μM compound) was less than 50%.
For the compound `CNc1cc(-c2cn(C(C)C)c3ncccc23)nn2c(C(=O)N[C@H]3COC[C@H]3O)cnc12` [Compound I-14, N-((3S,4S)-4-hydroxytetrahydrofuran-3-yl)-6-(1-isopropyl-1H-pyrrolo[2,3-b]pyridin-3-yl)-8-(methylamino)imidazo[1,2-b]pyridazine-3-carboxamide], in assay [1], the Kd was less than 0.2 nM. For the same compound, the inhibition at 0.05 µM in assay [5] (0.05 μM compound) lay in the range of 70 to 90%.
